Test [1] deals with T1, Beta-secretase 1 (Homo sapiens, UniProt P56817). Nature of the test: Inhibition of BACE1 in human HEK293 cells overexpressing APP with Swedish mutation assessed as inhibition of amyloid beta 40 production. The conditions noted are these: read-out: IC50. The format is cell-based.
Test [2] concerns the target T1, Beta-secretase 1. Nature of the test: Binding affinity to BACE assessed as displacement of [3H]BMS-599240. The conditions noted are these: read-out: IC50. A general note: Displacement assays read how much labelled ligand stays bound in the presence of the test substance.

SMILES strings stand for the structures.

T1 sequence (P56817 whole entry): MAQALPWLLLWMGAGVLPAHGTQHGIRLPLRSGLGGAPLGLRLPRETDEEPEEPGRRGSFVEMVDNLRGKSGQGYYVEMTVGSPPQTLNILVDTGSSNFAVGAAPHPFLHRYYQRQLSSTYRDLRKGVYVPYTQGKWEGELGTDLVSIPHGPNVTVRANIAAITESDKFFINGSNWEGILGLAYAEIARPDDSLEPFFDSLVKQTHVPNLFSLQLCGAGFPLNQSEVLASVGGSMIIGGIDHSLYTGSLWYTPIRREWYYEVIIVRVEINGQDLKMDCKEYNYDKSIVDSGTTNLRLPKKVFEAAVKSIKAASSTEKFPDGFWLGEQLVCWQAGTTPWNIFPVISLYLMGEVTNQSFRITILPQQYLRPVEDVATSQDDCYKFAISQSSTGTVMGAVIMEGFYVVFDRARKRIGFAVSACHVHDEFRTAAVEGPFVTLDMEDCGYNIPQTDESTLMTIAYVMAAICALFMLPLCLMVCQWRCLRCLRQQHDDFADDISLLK

What is called IC50 is the concentration at which inhibition is half-maximal. Take `CCCN(CCC)C(=O)c1cc(Oc2ccc(OC)cc2)cc(C(=O)N[C@@H](Cc2cc(F)cc(F)c2)[C@H](O)CNCc2cccc(OC)c2)c1`: the results for the IC50 in test [1] and in test [2] were 412 nM and 10 nM, respectively.

As to `CCCN(CCC)C(=O)c1cc(Oc2ccccc2)cc(C(=O)N[C@@H](Cc2cc(F)cc(F)c2)[C@H](O)CNCc2cccc(OC)c2)c1`, the IC50 was over 333 nM in test [1] and 10 nM in test [2].

Take `CCCN(CCC)C(=O)c1cc(Sc2ccc(OC)cc2)cc(C(=O)N[C@@H](Cc2cc(F)cc(F)c2)[C@H](O)CNCc2cccc(OC)c2)c1`: the IC50 in test [1] stood at 30 nM; in test [2] it was 27 nM.

For `CCCN(CCC)C(=O)c1cc(C(=O)N[C@@H](Cc2cc(F)cc(F)c2)[C@H](O)CNCc2cccc(OC)c2)cc(S(=O)(=O)c2ccccc2)c1`, the half-inhibitory concentration (IC50) was 148 nM in test [1] and 11 nM in test [2].

As for `COc1cccc(CNC[C@@H](O)[C@H](Cc2cc(F)cc(F)c2)NC(=O)c2cc(/C(C)=N\OCc3ccccc3)cc(N(c3ccccc3)S(C)(=O)=O)c2)c1`, the results for the IC50 in test [1] and in test [2] were 88 nM and 12 nM, respectively.

With `CCCN(CCC)C(=O)c1cc(Sc2ccccc2)cc(C(=O)N[C@@H](Cc2cc(F)cc(F)c2)[C@H](O)CNCc2cccc(OC)c2)c1`, the IC50 in test [1] was over 333 nM; in test [2], 13 nM.

On to `CCCN(CCC)C(=O)c1cc(Oc2ccccc2OC)cc(C(=O)N[C@@H](Cc2cc(F)cc(F)c2)[C@H](O)CNCc2cccc(OC)c2)c1`, for which the IC50 in test [1] was over 666 nM; in test [2], 54 nM.

Take `C=CCO/N=C(/C)c1cc(C(=O)N[C@@H](Cc2cc(F)cc(F)c2)[C@H](O)CNCc2cccc(OC)c2)cc(N(c2ccccc2)S(C)(=O)=O)c1`: the half-inhibitory concentration (IC50) in test [1] was determined as 162 nM; in test [2], 27 nM.

Regarding `CCCN(CCC)C(=O)c1cc(Oc2ccc(F)cc2)cc(C(=O)N[C@@H](Cc2cc(F)cc(F)c2)[C@H](O)CNCc2cccc(OC)c2)c1`, the results for the IC50 in test [1] and in test [2] were 94 nM and 22 nM, respectively.

Take `CCCN(CCC)C(=O)c1cc(C(=O)N[C@@H](Cc2cc(F)cc(F)c2)[C@H](O)CNCc2cccc(OC)c2)cc(S(=O)(=O)c2ccc(OC)cc2)c1`: the IC50 was found to be 392 nM in test [1] and 12 nM in test [2].
